Key:
Type in all cases: in vivo
Alopecurus myosuroides = assay: Pre-emergence test, weed control; conditions: 3 weeks after treatment, rating 0-100 (100=death), Table 3
Method: (§1) The pre-emergence tests involve spraying a liquid formulation of the compound onto the soil in which the seeds of the plant species mentioned above has recently been sown.
(§2) The soil used in the tests is a prepared horticultural loam. The formulations used in the tests are prepared from solutions of the test compounds in acetone containing 0.4% by weight of an alkylphenol/ethylene oxide condensate available under the trade mark TRITON X-155.
(§3) In these tests untreated sown soil is used as control. The herbicidal effects of the test compounds are assessed visually three weeks after spraying the soil and are recorded an a 0 to 100 scale. A rating 0 indicates growth as untreated control, a rating 100 indicates death. An increase of 10 unit an the linear scale approximates to a 10% increase in the level of effect. The results of the assessment are set out in Tables 1 to 4.

Apera spica-venti = assay: Pre-emergence test, weed control; conditions: 3 weeks after treatment, rating 0-100 (100=death), Table 3
Method: as §1, §2, §3

Galium aparine = assay: Pre-emergence test, weed control; conditions: 3 weeks after treatment, rating 0-100 (100=death), Table 3
Method: as §1, §2, §3

Lamium purpureum = assay: Pre-emergence test, weed control; conditions: 3 weeks after treatment, rating 0-100 (100=death), Table 3
Method: as §1, §2, §3

Lolium perenne = assay: Pre-emergence test, weed control; conditions: 3 weeks after treatment, rating 0-100 (100=death), Table 3
Method: as §1, §2, §3

Matricaria inodora = assay: Pre-emergence test, weed control; conditions: 3 weeks after treatment, rating 0-100 (100=death), Table 3
Method: as §1, §2, §3

Poa annua = assay: Pre-emergence test, weed control; conditions: 3 weeks after treatment, rating 0-100 (100=death), Table 3
Method: as §1, §2, §3

Setaria viridis = assay: Pre-emergence test, weed control; conditions: 3 weeks after treatment, rating 0-100 (100=death), Table 3
Method: as §1, §2, §3

Stellaria media = assay: Pre-emergence test, weed control; conditions: 3 weeks after treatment, rating 0-100 (100=death), Table 3
Method: as §1, §2, §3

Veronica persica = assay: Pre-emergence test, weed control; conditions: 3 weeks after treatment, rating 0-100 (100=death), Table 3
Method: as §1, §2, §3

PAPRH = assay: Pre-emergence test, weed control; conditions: 3 weeks after treatment, rating 0-100 (100=death), Table 3
Method: as §1, §2
as §3, with “These acetone solutions are diluted with water and the resulting formulations applied at dosage levels corresponding to 15 g, 30 g, 60 g, 120 g or 240 g of active material per hectare in a volume equivalent to 900 liters per hectare. In” for “In”

VIOAR = assay: Pre-emergence test, weed control; conditions: 3 weeks after treatment, rating 0-100 (100=death), Table 3
Method: as §1, §2
as §3, with “These acetone solutions are diluted with water and the resulting formulations applied at dosage levels corresponding to 15 g, 30 g, 60 g, 120 g or 240 g of active material per hectare in a volume equivalent to 900 liters per hectare. In” for “In”

[1] = test system: Triticum aestivum variety “Kanzler”; assay: Pre-emergence test, selectivity; conditions: 3 weeks after treatment, rating 0-100 (100=death), Table 4
Method: as §1, §2
as §3, with “These acetone solutions are diluted with water and the resulting formulations applied at dosage levels corresponding to 15 g, 30 g, 60 g, 120 g or 240 g of active material per hectare in a volume equivalent to 900 liters per hectare. In” for “In”

[2] = test system: Triticum aestivum variety “Monopol”; assay: Pre-emergence test, selectivity; conditions: 3 weeks after treatment, rating 0-100 (100=death), Table 4
Method: as §1, §2
as §3, with “These acetone solutions are diluted with water and the resulting formulations applied at dosage levels corresponding to 15 g, 30 g, 60 g, 120 g or 240 g of active material per hectare in a volume equivalent to 900 liters per hectare. In” for “In”

wheat = assay: Pre-emergence test, tolerance in wheat; conditions: in vivo
Method: as §1, §2
as §3, with “These acetone solutions are diluted with water and the resulting formulations applied at dosage levels corresponding to 15 g, 30 g, 60 g, 120 g or 240 g of active material per hectare in a volume equivalent to 900 liters per hectare. In” for “In”

Cc1cc(Oc2ccnc(Cl)c2)nc(-c2ccc(C(F)(F)F)cc2)n1 [REF-6]
ALOMY weed control rating (Alopecurus myosuroides; 0.030 kg/ha): 30
ALOMY weed control rating (Alopecurus myosuroides; 0.060 kg/ha): 60
ALOMY weed control rating (Alopecurus myosuroides; 0.120 kg/ha): 97
ALOMY weed control rating (Alopecurus myosuroides; 0.240 kg/ha): 99
APESV weed control rating (Apera spica-venti; 0.030 kg/ha): 100
APESV weed control rating (Apera spica-venti; 0.060 kg/ha): 100
APESV weed control rating (Apera spica-venti; 0.120 kg/ha): 100
APESV weed control rating (Apera spica-venti; 0.240 kg/ha): 100
GALAP weed control rating (Galium aparine; 0.120 kg/ha): 65
GALAP weed control rating (Galium aparine; 0.240 kg/ha): 97
LAMPU weed control rating (Lamium purpureum; 0.030 kg/ha): 85
LAMPU weed control rating (Lamium purpureum; 0.060 kg/ha): 100
LAMPU weed control rating (Lamium purpureum; 0.120 kg/ha): 100
LAMPU weed control rating (Lamium purpureum; 0.240 kg/ha): 100
LOLPE weed control rating (Lolium perenne; 0.030 kg/ha): 95
LOLPE weed control rating (Lolium perenne; 0.060 kg/ha): 100
LOLPE weed control rating (Lolium perenne; 0.120 kg/ha): 100
LOLPE weed control rating (Lolium perenne; 0.240 kg/ha): 100
MATIN weed control rating (Matricaria inodora; 0.030 kg/ha): 99
MATIN weed control rating (Matricaria inodora; 0.060 kg/ha): 100
MATIN weed control rating (Matricaria inodora; 0.120 kg/ha): 100
MATIN weed control rating (Matricaria inodora; 0.240 kg/ha): 100
POAAN weed control rating (Poa annua; 0.030 kg/ha): 100
POAAN weed control rating (Poa annua; 0.060 kg/ha): 100
POAAN weed control rating (Poa annua; 0.120 kg/ha): 100
POAAN weed control rating (Poa annua; 0.240 kg/ha): 100
SETVI weed control rating (Setaria viridis; 0.030 kg/ha): 100
SETVI weed control rating (Setaria viridis; 0.060 kg/ha): 100
SETVI weed control rating (Setaria viridis; 0.120 kg/ha): 100
SETVI weed control rating (Setaria viridis; 0.240 kg/ha): 100
STEME weed control rating (Stellaria media; 0.030 kg/ha): 97
STEME weed control rating (Stellaria media; 0.060 kg/ha): 100
STEME weed control rating (Stellaria media; 0.120 kg/ha): 100
STEME weed control rating (Stellaria media; 0.240 kg/ha): 100
VERPE weed control rating (Veronica persica; 0.030 kg/ha): 96
VERPE weed control rating (Veronica persica; 0.060 kg/ha): 100
VERPE weed control rating (Veronica persica; 0.120 kg/ha): 100
VERPE weed control rating (Veronica persica; 0.240 kg/ha): 100
PAPRH weed control rating (PAPRH; 0.030 kg/ha): 100
PAPRH weed control rating (PAPRH; 0.060 kg/ha): 100
PAPRH weed control rating (PAPRH; 0.120 kg/ha): 100
PAPRH weed control rating (PAPRH; 0.240 kg/ha): 100
VIOAR weed control rating (VIOAR; 0.030 kg/ha): 99
VIOAR weed control rating (VIOAR; 0.060 kg/ha): 99
VIOAR weed control rating (VIOAR; 0.120 kg/ha): 99
VIOAR weed control rating (VIOAR; 0.240 kg/ha): 99
TRZAWK rating (Selectivity) ([1]; 0.060 kg/ha): 10
TRZAWK rating (Selectivity) ([1]; 0.120 kg/ha): 12
TRZAWK rating (Selectivity) ([1]; 0.240 kg/ha): 25
TRZAWM rating (Selectivity) ([2]; 0.030 kg/ha): 1
TRZAWM rating (Selectivity) ([2]; 0.060 kg/ha): 8
TRZAWM rating (Selectivity) ([2]; 0.120 kg/ha): 15
TRZAWM rating (Selectivity) ([2]; 0.240 kg/ha): 25
maximum tolerated dose in wheat / dose at which sufficiently selective in wheat (wheat): 120 g/ha

CSc1cc(Oc2ccnc(Cl)c2)nc(-c2ccc(C(F)(F)F)cc2)n1 [REF-7]
ALOMY weed control rating (Alopecurus myosuroides; 0.030 kg/ha): 10
ALOMY weed control rating (Alopecurus myosuroides; 0.060 kg/ha): 35
ALOMY weed control rating (Alopecurus myosuroides; 0.120 kg/ha): 65
ALOMY weed control rating (Alopecurus myosuroides; 0.240 kg/ha): 90
APESV weed control rating (Apera spica-venti; 0.030 kg/ha): 100
APESV weed control rating (Apera spica-venti; 0.060 kg/ha): 100
APESV weed control rating (Apera spica-venti; 0.120 kg/ha): 100
APESV weed control rating (Apera spica-venti; 0.240 kg/ha): 100
GALAP weed control rating (Galium aparine; 0.120 kg/ha): 65
GALAP weed control rating (Galium aparine; 0.240 kg/ha): 92
LAMPU weed control rating (Lamium purpureum; 0.030 kg/ha): 30
LAMPU weed control rating (Lamium purpureum; 0.060 kg/ha): 90
LAMPU weed control rating (Lamium purpureum; 0.120 kg/ha): 93
LAMPU weed control rating (Lamium purpureum; 0.240 kg/ha): 100
LOLPE weed control rating (Lolium perenne; 0.030 kg/ha): 75
LOLPE weed control rating (Lolium perenne; 0.060 kg/ha): 90
LOLPE weed control rating (Lolium perenne; 0.120 kg/ha): 97
LOLPE weed control rating (Lolium perenne; 0.240 kg/ha): 99
MATIN weed control rating (Matricaria inodora; 0.030 kg/ha): 90
MATIN weed control rating (Matricaria inodora; 0.060 kg/ha): 100
MATIN weed control rating (Matricaria inodora; 0.120 kg/ha): 100
MATIN weed control rating (Matricaria inodora; 0.240 kg/ha): 100
POAAN weed control rating (Poa annua; 0.030 kg/ha): 95
POAAN weed control rating (Poa annua; 0.060 kg/ha): 95
POAAN weed control rating (Poa annua; 0.120 kg/ha): 100
POAAN weed control rating (Poa annua; 0.240 kg/ha): 100
SETVI weed control rating (Setaria viridis; 0.030 kg/ha): 35
SETVI weed control rating (Setaria viridis; 0.060 kg/ha): 85
SETVI weed control rating (Setaria viridis; 0.120 kg/ha): 93
SETVI weed control rating (Setaria viridis; 0.240 kg/ha): 100
STEME weed control rating (Stellaria media; 0.030 kg/ha): 25
STEME weed control rating (Stellaria media; 0.060 kg/ha): 98
STEME weed control rating (Stellaria media; 0.120 kg/ha): 98
STEME weed control rating (Stellaria media; 0.240 kg/ha): 100
VERPE weed control rating (Veronica persica; 0.030 kg/ha): 70
VERPE weed control rating (Veronica persica; 0.060 kg/ha): 90
VERPE weed control rating (Veronica persica; 0.120 kg/ha): 99
VERPE weed control rating (Veronica persica; 0.240 kg/ha): 100
PAPRH weed control rating (PAPRH; 0.030 kg/ha): 95
PAPRH weed control rating (PAPRH; 0.060 kg/ha): 100
PAPRH weed control rating (PAPRH; 0.120 kg/ha): 100
PAPRH weed control rating (PAPRH; 0.240 kg/ha): 100
VIOAR weed control rating (VIOAR; 0.030 kg/ha): 98
VIOAR weed control rating (VIOAR; 0.060 kg/ha): 99
VIOAR weed control rating (VIOAR; 0.120 kg/ha): 99
VIOAR weed control rating (VIOAR; 0.240 kg/ha): 99
TRZAWK rating (Selectivity) ([1]; 0.030 kg/ha): 2
TRZAWK rating (Selectivity) ([1]; 0.060 kg/ha): 5
TRZAWK rating (Selectivity) ([1]; 0.120 kg/ha): 5
TRZAWK rating (Selectivity) ([1]; 0.240 kg/ha): 18
TRZAWM rating (Selectivity) ([2]; 0.030 kg/ha): 2
TRZAWM rating (Selectivity) ([2]; 0.060 kg/ha): 5
TRZAWM rating (Selectivity) ([2]; 0.120 kg/ha): 5
TRZAWM rating (Selectivity) ([2]; 0.240 kg/ha): 10
maximum tolerated dose in wheat / dose at which sufficiently selective in wheat (wheat): 240 g/ha
